Results from patent US7598253B2, “Reverse-turn mimetics and methods relating thereto” (Myriad Genetics, Inc., priority 1995, dated 2009).
“And” between values parts separate entries of the source, which are not always exact repeats. Equal entries are not always repeated. Where two headings read alike, the source gives them in different places.

Experiments:
δ opiate receptor = δ opiate receptor (Cavia porcellus, UniProt A0A286XTF2); experiment: Opiate (δ) binding, [3H]DPDPE competitive radioligand binding; design: species or system guinea pig
μ opiate receptor = μ opiate receptor (Cavia porcellus, UniProt A0ACM8Q262); experiment: biochemical; format: binding, guinea pig
male ICR mice = experiment: In vivo mouse tail flick assay (radiant heat); conditions: for % Prolong.: 1 minute post-treatment vs 0 time; for tail flick response time, 1 Min. (single animal) / tail flick response time, 1 Min. (Avg.): 1 minute post-treatment; for tail flick response time, 1 Min. (single animal): cut-off 15 seconds; for tail flick response time, 1 Min. (Avg.) / tail flick response time, 0 Time (Avg.): group mean; for tail flick response time, 0 Time (Avg.) / tail flick response time, 0 Time (single animal): pre-treatment
[1] = biological target: opioid receptor (non-selective); experiment: Opiate (non-selective) binding, [3H]naloxone; conditions: [3H]naloxone (1 nM), rat cerebral cortex membranes
[2] = read-out: inhibition of radioligand binding
[3] = 10 μg/5 μl ICV, listed as Test Compound
[4] = 30 μg/5 μl ICV, listed as Test Compound
[5] = reference compounds, [3H]DPDPE bound (2 nM)

μ opiate receptor, sequence (A0ACM8Q262 1-400): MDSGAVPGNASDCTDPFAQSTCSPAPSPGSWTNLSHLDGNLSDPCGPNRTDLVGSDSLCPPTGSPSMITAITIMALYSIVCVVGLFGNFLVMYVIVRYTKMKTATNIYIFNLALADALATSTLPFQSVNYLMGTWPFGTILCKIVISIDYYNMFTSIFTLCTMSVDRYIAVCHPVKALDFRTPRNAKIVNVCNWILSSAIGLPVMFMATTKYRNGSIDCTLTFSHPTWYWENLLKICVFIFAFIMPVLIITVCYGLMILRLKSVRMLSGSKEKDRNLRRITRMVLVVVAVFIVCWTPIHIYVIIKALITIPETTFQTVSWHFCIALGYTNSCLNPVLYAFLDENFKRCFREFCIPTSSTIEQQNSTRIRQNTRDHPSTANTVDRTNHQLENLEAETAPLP
δ opiate receptor, sequence (A0A286XTF2 1-366): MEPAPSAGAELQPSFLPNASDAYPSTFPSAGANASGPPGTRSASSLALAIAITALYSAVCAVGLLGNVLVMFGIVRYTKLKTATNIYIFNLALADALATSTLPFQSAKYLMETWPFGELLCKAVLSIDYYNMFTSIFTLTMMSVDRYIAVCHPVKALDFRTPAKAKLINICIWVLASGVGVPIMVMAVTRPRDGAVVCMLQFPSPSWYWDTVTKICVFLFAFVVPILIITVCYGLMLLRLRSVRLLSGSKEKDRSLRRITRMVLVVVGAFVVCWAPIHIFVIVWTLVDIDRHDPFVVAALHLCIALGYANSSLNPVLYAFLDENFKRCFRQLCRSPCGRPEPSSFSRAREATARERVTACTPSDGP

Compound: (D-pen^3, D-pen^5) enkephalin [DPDPE]
- Hill Coefficient (δ opiate receptor): 0.86
- Hill Coefficient (μ opiate receptor): 1.32

Compound: O=C1CN2C(=O)CCN(CCc3ccc(O)cc3)C2CN1CCc1ccccc1 (centres unmarked) [Compound 5]
- IC50 (δ opiate receptor; read-out: IC50): 6.9 ± 1.2 µM
- Ki (δ opiate receptor; read-out: Ki): 1700 ± 300 nM
- inhibition at 10 µM (δ opiate receptor; [2]): 60%
- IC50 (μ opiate receptor): 5400 ± 700 nM
- Ki (μ opiate receptor): 640 ± 80 nM
- inhibition at 10 µM (μ opiate receptor; [2]): 64%
- % Prolong. (male ICR mice; 10 μg/5 μl ICV): 6%
- tail flick response time, 1 Min. (single animal) (male ICR mice; [3]): 7.5 seconds (2×) and 6.7 seconds and 6.8 seconds
- tail flick response time, 1 Min. (Avg.) (male ICR mice; 10 μg/5 μl ICV): Avg. 7.1 seconds
- tail flick response time, 0 Time (Avg.) (male ICR mice; 10 μg/5 μl ICV): Avg. = 6.7 seconds
- tail flick response time, 0 Time (single animal) (male ICR mice; [3]): 6.5 s and 7.2 s and 6.9 s and 6.2 s
- % Prolong. (male ICR mice; 30 μg/5 μl ICV): 63%
- tail flick response time, 1 Min. (single animal) (male ICR mice; [4]): >15 seconds (2×) and 7.2 seconds and 6.3 seconds
- tail flick response time, 1 Min. (Avg.) (male ICR mice; 30 μg/5 μl ICV): Avg. > 15 seconds
- tail flick response time, 0 Time (Avg.) (male ICR mice; 30 μg/5 μl ICV): Avg. = 6.7 seconds
- tail flick response time, 0 Time (single animal) (male ICR mice; [4]): 6.5 s and 6.7 s and 7.2 s and 6.3 s
- % Prolong. (male ICR mice; 100 μg/5 μl ICV): 100%
- tail flick response time, 1 Min. (single animal) (male ICR mice; 100 μg/5 μl ICV): >15 s
- tail flick response time, 1 Min. (Avg.) (male ICR mice; 100 μg/5 μl ICV): Avg. > 15 seconds
- tail flick response time, 0 Time (Avg.) (male ICR mice; 100 μg/5 μl ICV): Avg. = 6.5 seconds
- tail flick response time, 0 Time (single animal) (male ICR mice; 100 μg/5 μl ICV, listed as Test Compound): 6.5 seconds (2×) and 6.3 seconds and 6.8 seconds
- analgesic potency relative to morphine (male ICR mice; ICV, tail flick): 10%-15%

Compound: Oc1ccc2c3c1O[C@H]1c4[nH]c5ccccc5c4C[C@@]4(O)[C@@H](C2)N(CC2CC2)CC[C@]314 [Naltrindole]
- Hill Coefficient (δ opiate receptor; [5]): 0.53
- Hill Coefficient (μ opiate receptor): 0.98
- IC50 (μ opiate receptor): 27 nM
- Ki (μ opiate receptor): 2.5 nM

Compound: C[C@@H](NC(=O)[C@@H](N)Cc1ccc(O)cc1)C(=O)NCC(=O)N(C)[C@@H](Cc1ccccc1)C(=O)NCCO [DAMGO, (D-Ala^2, N-methyl-phe^4, gly-ol^5)-enkephalin]
- IC50 (δ opiate receptor): 4.8 µM
- Ki (δ opiate receptor): 1200 nM
- Hill Coefficient (δ opiate receptor; [5]): 1.08
- Hill Coefficient (μ opiate receptor): 0.92
- IC50 (μ opiate receptor): 6.5 nM
- Ki (μ opiate receptor): 0.59 nM

Compound: CN1CC[C@]23c4c5ccc(O)c4O[C@H]2[C@@H](O)C=C[C@H]3[C@H]1C5 [Morphine, reference compound]
- % Prolong. (male ICR mice; 10 μg/5 μl ICV): 100%
- tail flick response time, 1 Min. (single animal) (male ICR mice; 10 μg/5 μl ICV): >15 s
- tail flick response time, 1 Min. (Avg.) (male ICR mice; 10 μg/5 μl ICV): Avg. > 15 seconds
- tail flick response time, 0 Time (single animal) (male ICR mice; 10 μg/5 μl ICV): 7.5 s and 6.3 s and 7.2 s and 6.8 s
- tail flick response time, 0 Time (Avg.) (male ICR mice; 10 μg/5 μl ICV): Avg. = 7.0 seconds

Compound: C[C@@H](NC(=O)[C@@H](N)Cc1ccc(O)cc1)C(=O)NCC(=O)N(C)[C@@H](Cc1ccccc1)C(=O)NCCO [[^3H]DAMGO]
- Kd (μ opiate receptor; read-out: Kd of radioligand): 0.27 nM

Compound: Oc1ccc2c3c1O[C@H]1c4[nH]c5c(c4C[C@@]4(O)[C@@H](C2)N(CC2CC2)CC[C@]314)C[C@@]1(O)[C@H]2Cc3ccc(O)c4c3[C@@]1(CCN2CC1CC1)[C@H]5O4 [Norbinaltorphimine]
- Hill Coefficient (μ opiate receptor): 1.13
- IC50 (μ opiate receptor): 280 nM
- Ki (μ opiate receptor): 26 nM

Compound: CCCCCN1C[C@@H]2N(C(=O)OCCc3ccc(O)cc3)CCC(=O)N2[C@@H](CCc2ccccc2)C1=O [Compound 30]
- IC50 [1]: 27 nM
